# Laboratory results taken from publication PMC12261233, “Photoactivatable Cyclometalated Ir(III) Compound Penetrates the Blood-Brain Barrier in 3D Spheroidal and Advanced 3D Organoid Models of Inherently Resistant and Aggressive Brain Tumors” (ACS Pharmacology & Translational Science, 2025).
# How the values were obtained:
# [1] = tested on: cerebral organoid with U87MG spheroid implant; test: Distribution of compound in organoid-spheroid implant model (confocal); type: cell-based, human; settings: 5 μM
# Protocol: An implant fusion model was established to monitor the distribution of Ir4 within the tumor, represented by the implanted tumorspheres generated from U87MG, and healthy tissue, represented by the hiPSC-derived cerebral organoid. Before the implantation procedure, spheroids derived from U87MG glioblastoma were cultured for 72 h under 3D forming conditions using ULA plates (96-well U-shaped plate, Corning) in DMEM-F12 supplemented with 2% B27, epidermal growth factor (EGF) at 20 ng mL^–1, fibroblast growth factor 2 (FGF2) at 10 ng mL^–1, and BSA (0.15%). Cerebral organoids were generated through a four-step directed differentiation process from human induced pluripotent stem cells (hiPSCs, Gibco). The hiPSCs were cultured on Geltrex matrix (hESC-Qualified, Reduced Growth Factor Basement Membrane Matrix; Gibco) in StemFlex basal medium (DMEM/F12, Ham, 1:1) fully supplemented with StemFlex supplement (Gibco). […] After the initial differentiation phase, early organoids were monitored for the development of optically clear neuroectoderm (characterized by an optically bright, translucent surface) and the formation of large buds of translucent ectoderm that were not radially organized. […] The samples were then transferred to confocal Petri dishes containing drug-free cerebral maturation medium and analyzed using a confocal microscope (Leica CM SP5, Leica, Germany).
# U87MG spheroids = test: Morphology and diameter of spheroids after treatment and irradiation (phase contrast); type: cell-based, human; settings: 90 min treatment, 30 min blue light, 70 h drug-free incubation
# Protocol: We further investigated the effects of treatment and irradiation on tumor spheroids by analyzing the morphology and diameter of spheroids from the U87MG cell line. Morphogenic parameters were assessed using phase contrast microscopy at 24-h intervals during the preformation phase and post-treatment, culminating at 144 h. Initial mean diameters of the spheroids were 280 ± 11 μm, increasing to 550 μm after 70 h of drug-free incubation. U87MG spheroids proliferated rapidly. Rapidly growing tumor cells are generally more sensitive to treatment, whereas quiescent tumor cells are moderately sensitive to metal-based compounds.
# The spheroid models underwent treatment with varying concentrations of compounds, focusing on equitoxic concentrations during blue light exposure. The analysis included both irradiated and nonirradiated samples to assess nonspecific toxicity under dark conditions. […]
# Figure S30. […] Phase contrast microphotographs were obtained for spheroids generated from U87MG cells (panel A), and the respective mean diameters were analyzed and shown in panel B for U87MG spheroids. […] Mean diameters for dark-incubated samples were analyzed at the same concentrations as those for irradiated samples to assess the impact of irradiation. […]
# hCMEC/D3 cells = tested on: hCMEC/D3 cells; set-up: method as in number not printed (footnote c: Data taken from the ref); settings: comparison value; ref number not printed (footnote c: Data taken from the ref); cited from earlier work
SMILES,distribution in organoid-spheroid fusion system [1],effect on spheroid diameter / growth (U87MG spheroids),P app (hCMEC/D3 cells)
CCCCn1c2[n+](c3cc(C(=O)OC)ccc31)[Ir-3]13([Cl])([c]4ccccc4-2)[n+]2ccccc2-c2cc(-c4ccc(C)cc4)cc([n+]21)-c1cccc[n+]13.F[P-](F)(F)(F)(F)F [Ir4],predominantly accumulated in malignant tissues,spheroid diameters decreased below their initial size,
"Cn1nnc2c(C(N)=O)ncn2c1=O [Temozolomide, reference compound]",,,0.36 × 10^–4 cm·s^–1
